Test results from patent US20060009425A1, “Oral formulations of paricalcitol” (priority 2004, published 2006).

How the values were obtained:
Assay type in all cases: in vivo, human
[1] = tested on: biochemical bone activity markers; assay: Combined Phase 3 studies, biochemical bone activity markers
From the text: Serum bone-specific alkaline phosphate and serum osteocalcin are considered more sensitive bone markers to evaluate degree of bone remodeling than urinary bone marker. […] These subjects received treatment with the oral formulations of the present invention or a placebo. The bone markers examined in these subjects were serum osteocalcin, serum bone-specific alkaline phosphatase, urinary pyridinoline, and deoxypyridinoline. If more than 1 biochemical bone activity marker measurement existed for a subject on a particular day, the higher measurement was considered to be that subject's biochemical bone activity marker measurement for that day. […] The Final Visit measurement was defined as the last biochemical bone activity marker measurement following the first dose of study drug.
(§1) The Week 11 Visit measurement was defined as the biochemical bone activity marker measurement on the day closest to the Week 11 scheduled visit, for which the possible measurements to choose from were those collected within 64 and 77 days following the first dose of study drug.
(§2) Changes from baseline to Week 11 Visit and to Final Visit in biochemical bone activity markers were compared between oral paricalcitol and placebo using an ANOVA with treatment as the factor on the combined Phase 3 all treated subject population (Table F). Also, the changes from baseline to Week 11 Visit and to Final Visit were compared between oral paricalcitol and placebo using an ANCOVA with baseline as the second factor on the combined Phase 3 all treated subject population (Table G).
In this example, paricalcitol capsules were evaluated in 3 double-blind, placebo-controlled multicenter studies in CKD stage 3-4 subjects with 2° HPT; 2 of these studies were conducted with TIW dosing and 1 was done with QD dosing. Subjects with eGFR (MDRD formula) 15-60 ml/min/1.73 m^2, iPTH ≧150 pg/mL, serum Ca 8.0-10.0 mg/dL and PO4≦5.2 mg/dL were randomized 1:1 and treated with paricalcitol capsule or placebo for 24 weeks. A total of 145 subjects used TIW regimen (paricalcitol: 72; placebo: 73) and 75 subjects (paricalcitol: 35; placebo: 40) used QD regimen. After the initial doses, doses were titrated based on serum Ca, P and iPTH results that were measured every 2 weeks; dose increases occurred once every 4 weeks and decreases every 2 weeks. Dosing administrations are shown below in Table 18.

[2] = tested on: serum parathyroid hormone (PTH) levels; assay: Phase 3 placebo-controlled once daily study, iPTH reduction (Example 8)
From the text: Methodology: This was a Phase 3, prospective, randomized, placebo-controlled, double-blind, 24-week Treatment Phase, multi-center study in CKD (Stages 3 and 4) subjects with elevated PTH levels (≧150 pg/mL). Subjects were randomized in an equal ratio (1:1) to 1 of 2 treatment groups: Paricalcitol capsule (Group 1) and placebo (Group 2). Potential subjects underwent procedures to determine their baseline intact PTH (iPTH), calcium, and phosphorus levels for eligibility to receive treatment.
(§3) During the Treatment Phase, subjects were to self-administer study drug once daily for a total of 24 weeks. The initial dose was 1 or 2 mcg (depending on baseline iPTH levels). Procedures to be performed during the Treatment Phase included vital signs, chemistry and hematology, urinary pyridinoline, urinary deoxypyridinoline, serum bone-specific alkaline phosphatase, serum osteocalcin, urinalysis, spot urine for calcium/creatinine ratio, and recording of adverse events and concurrent medications. Serum iPTH, calcium, phosphorus, and albumin were measured every 2 weeks. Dose adjustments were to be made according to these chemistry results for iPTH, calcium, and phosphorus. Doses may have been increased in 1 mcg increments every 4 weeks. Dose reductions were to occur according to a protocol-specified algorithm. However, dosing could have been adjusted any time if, in the judgment of the Investigator, a risk to subject safety existed.
Efficacy: The primary efficacy endpoint was the achievement of 2 consecutive >30% decreases from baseline iPTH levels.
The secondary efficacy analyses include change and percent change from baseline analyses in iPTH and change from baseline analyses in biochemical bone activity markers.
The Intent-To-Treat population (Full Analysis Set) was defined as all randomized subjects with a baseline iPTH and at least 2 on-treatment iPTH measurements. This population was used in the primary efficacy analysis.

[3] = tested on: biochemical bone activity markers; assay: Phase 3 once daily study, biochemical bone activity markers (Table E); conditions: CKD Stage 3 and 4, daily (QD) treated subjects (Table E)
Experimental: Serum bone-specific alkaline phosphate and serum osteocalcin are considered more sensitive bone markers to evaluate degree of bone remodeling than urinary bone marker. […] As shown in Examples 5-7 and Tables C (Example 5), Table D (Example 6) and Table E (Example 7), certain biochemical bone activity marker variables were analyzed in CKD Stage 3 and 4 subjects. These subjects received treatment with the oral formulations of the present invention or a placebo. The bone markers examined in these subjects were serum osteocalcin, serum bone-specific alkaline phosphatase, urinary pyridinoline, and deoxypyridinoline. If more than 1 biochemical bone activity marker measurement existed for a subject on a particular day, the higher measurement was considered to be that subject's biochemical bone activity marker measurement for that day. […] The Final Visit measurement was defined as the last biochemical bone activity marker measurement following the first dose of study drug.
as §1, §2, §3

[4] = Phase 3 TIW study, safety (Example 7)
Experimental: Safety: Safety was assessed through an evaluation of clinically meaningful hypercalcemia (2 consecutive calcium results >10.5 mg/dL). Additionally, safety was assessed by the incidence of adverse events, the change from baseline in chemistry, hematology and urinalysis laboratory variables, the change from baseline in subject vital signs, and progressive changes in renal function observed via changes in eGFR.
All randomized subjects who received at least 1 dose of study drug were used in safety analyses. The primary safety analysis was a comparison between the paricalcitol and placebo treatment groups of the proportion of subjects achieving clinically meaningful hypercalcemia (2 consecutive calcium measurements >10.5 mg/dL). This comparison was performed using a Fisher's exact test. Secondary safety analyses were performed comparing changes/percent changes from baseline between the paricalcitol and placebo treatment groups using a one-way ANOVA with treatment group as the factor for the following variables: hematology, complete chemistry, and urinalysis variables; 24-hour urine collections, eGFR, urinary calcium/creatinine ratio, cardiovascular markers, and vital signs. Secondary safety analyses also consisted of an analysis of “treatment-emergent” adverse events (i.e., adverse events with an onset date on or after the date the first dose of study drug was taken). Adverse events were summarized by body system and COSTART term according to the COSTART V adverse event-coding dictionary. Comparisons of the percentage of subjects experiencing an adverse event between the Oral paricalcitol and placebo treatment groups were performed using a Fisher's exact test.

[5] = Phase 3 studies combined, all treated subjects
[6] = Phase 3 studies combined, all treated subjects, listed as Oral Paricalcitol
[7] = Phase 3 studies combined, all treated subjects, listed as oral paricalcitol
[8] = Phase 3 studies, TIW Treatment Regimen

C[C@H](/C=C/[C@H](C)C(C)(C)O)[C@H]1CC[C@H]2/C(=C/C=C3C[C@@H](O)C[C@H](O)C3)CCC[C@]12C [Paricalcitol, 19-nor-1α,3β,25-trihydroxy-9,10-secoergosta-5(Z); 7(E),22(E)-triene]
Serum Osteocalcin, Change from Baseline (SE) to Week 11 [1, 5]: −3.94 (2.431) ng/mL | Urinary Deoxypyridinoline, Change from Baseline (SE) to Final [1, 5]: −0.0058 (0.00514) nmol/mg Creat | Urinary Pyridinoline, Change from Baseline (SE) to Week 11 [1, 5]: −5.21 (1.938) nmol/mmol Creat | Serum Bone-Specific Alkaline Phosphatase, Change from Baseline (SE) to Final [1, 6]: −7.890 (0.7596) mcg/L | Serum Bone-Specific Alkaline Phosphatase, Change from Baseline (SE) to Week 11 [1, 6]: −5.024 (0.6279) mcg/L | Serum Osteocalcin, Change from Baseline (SE) to Final [1, 6]: −21.64 (2.706) ng/mL | Urinary Deoxypyridinoline, Change from Baseline (SE) to Week 11 [1, 6]: −0.0155 (0.00433) nmol/mg Creat | Urinary Pyridinoline, Change from Baseline (SE) to Final [1, 6]: −3.61 (1.896) nmol/mmol Creat | Serum Bone-Specific Alkaline Phosphatase, Change from Baseline (SE) to Final [1, 7]: -7.89 µg/L | Serum Bone-Specific Alkaline Phosphatase, Change from Baseline (SE) to Week 11 [1, 7]: -5.024 µg/L | Serum Osteocalcin, Change from Baseline (SE) to Final [1, 7]: -21.64 ng/mL | Urinary Deoxypyridinoline, Change from Baseline (SE) to Week 11 [1, 7]: −0.0155 nmol/mg Creat | Urinary Pyridinoline, Change from Baseline (SE) to Final [1, 7]: −3.61 nmol/mmol Creat | Serum Bone-Specific Alkaline Phosphatase, Change from Baseline (SE) to Final [1, 8]: −8.043 (0.9033) mcg/L | Serum Bone-Specific Alkaline Phosphatase, Change from Baseline (SE) to Week 11 [1, 8]: −4.869 (0.7835) mcg/L | Serum Osteocalcin, Change from Baseline (SE) to Final [1, 8]: −18.96 (2.944) ng/mL | Serum Osteocalcin, Change from Baseline (SE) to Week 11 [1, 8]: −5.53 (2.720) ng/mL | Urinary Deoxypyridinoline, Change from Baseline (SE) to Final [1, 8]: −0.0130 (0.00357) nmol/mg Creat | Urinary Deoxypyridinoline, Change from Baseline (SE) to Week 11 [1, 8]: −0.0129 (0.00426) nmol/mg Creat | Urinary Pyridinoline, Change from Baseline (SE) to Final [1, 8]: −5.47 (1.789) nmol/mmol Creat | Urinary Pyridinoline, Change from Baseline (SE) to Week 11 [1, 8]: −5.19 (2.213) nmol/mmol Creat | Bone Spec. Alk Phos, Mean Change from Baseline ([1]; QD Regimen, N = 33 (Table 20)): −7.6 (1.40) mcg/L | Serum Osteocalcin, Mean Change from Baseline ([1]; QD Regimen, N = 33 (Table 20)): −27.1 (5.54) ng/mL | Serum Osteocalcin, Mean Change from Baseline ([1]; TIW Regimen, N = 67 (Table 20)): −19.0 (2.94) ng/mL | Bone Spec. Alk Phos, Mean Change from Baseline ([1]; TIW Regimen, N = 68 (Table 20)): −8.0 (0.90) mcg/L | subjects with 4 consecutive ≧30% decreases from baseline in iPTH ([2]; 23/33, exploratory analysis): 70% | subjects with 2 consecutive ≧30% decreases from baseline in iPTH ([2]; 30/33, once daily, 24 weeks, CKD Stages 3 and 4): 91% | maximum decrease from baseline in iPTH ([2]; observed at Week 23): −52.4% | 30% mean reduction in iPTH occurred by ([2]; once daily): ≤ 7 Week | mean change from baseline in iPTH at the Final Visit ([2]; once daily, 24 weeks): -46.9 pg/mL | mean change from baseline in iPTH at the Last On-Treatment Visit ([2]; once daily, 24 weeks): -130.8 pg/mL | percent decrease in iPTH at the Final Visit ([2]; once daily, 24 weeks): 15.2% | percent decrease in iPTH at the Last On-Treatment Visit ([2]; once daily, 24 weeks): 50.0% | Serum Bone-Specific Alkaline Phosphatase, Change from Baseline (SE) to Final [3]: −7.575 (1.3976) mcg/L | Serum Bone-Specific Alkaline Phosphatase, Change from Baseline (SE) to Week 11 [3]: −5.383 (1.0482) mcg/L | Serum Osteocalcin, Change from Baseline (SE) to Final [3]: −27.07 (5.544) ng/mL | Serum Osteocalcin, Change from Baseline (SE) to Week 11 [3]: −0.22 (4.968) ng/mL | Urinary Deoxypyridinoline, Change from Baseline (SE) to Final [3]: 0.0100 (0.01392) nmol/mg Creat | Urinary Deoxypyridinoline, Change from Baseline (SE) to Week 11 [3]: −0.0216 (0.01018) nmol/mg Creat | Urinary Pyridinoline, Change from Baseline (SE) to Final [3]: 0.26 (4.452) nmol/mmol Creat | Urinary Pyridinoline, Change from Baseline (SE) to Week 11 [3]: −5.27 (3.884) nmol/mmol Creat | safety and tolerability ([4]; CKD (Stages 3 and 4) subjects): safe and well tolerated | adverse events considered not related to study drug administration ([4]; TIW, 24 weeks): 81% | adverse events mild or moderate in severity ([4]; TIW, 24 weeks): 96% | subjects with treatment-emergent adverse events ([4]; TIW, 24 weeks): 76% | mean calcium values, range over scheduled visits ([4]; Treatment Phase): 9.36 to 9.62 mg/dL | subjects reporting serious adverse events ([4]; Treatment and Follow-Up Phases): 6 subjects | adverse event incidence: diarrhea ([4]; in vivo): 9% | adverse event incidence: dizziness ([4]; in vivo): 12% | adverse event incidence: edema ([4]; in vivo): 9% | adverse event incidence: hypotension ([4]; in vivo): 12% | adverse event incidence: uremia ([4]; in vivo): 12% | serum calcium, mean change from baseline to Last On-Treatment Visit ([4]; in vivo): 0.19 mg/dL | subjects terminated prematurely due to adverse events ([4]; in vivo): 1 subjects | subjects who developed clinically meaningful hypercalcemia (at least 2 consecutive calcium values >10.5 mg/dL) ([4]; in vivo): 1/33 | eGFR, mean percent change from baseline to Final Visit ([4]; subjects who completed 24 weeks of treatment): −16.61%
